Results published in US4118561A, “7-(Substituted)-7H-pyrrolo[3,2-f]quinazoline-1,3-diamines” (priority 1977, dated 1978).
Converted amounts (≈) assume the structure as drawn.

Test system: K. pneumoniae 10031
Assay: In vitro antibacterial activity (MIC), K. pneumoniae 10031
Conditions: Klebsiella pneumoniae, 10031, 18 h

Molecule `N#Cc1ccc(Cn2ccc3c4c(N)nc(N)nc4ccc32)cc1` [Example 16, 7-[(4-cyanophenyl)methyl]-7H-pyrrolo[3,2-f]-quinazoline-1,3-diamine] has an MIC of 0.061 µg/mL (≈ 0.194 µM).
